Assay results published in patent US20260232706A1, “1H-PYRAZOLE ANALOGUES AND METHODS AND USES THEREOF” (University of Manitoba, priority 2022, published 2026).

How the values were obtained:
[1] = system: neuroblastoma-spinal cord hybrid NSC-34 cells; assay: Neuroprotective effect/cell viability analysis in NSC-34 cells against H2O2 induced oxidative stress; assay type: cell-based; conditions: for neuroprotection in scavenging neurotoxic effects of H2O2 compared to EDR / viability compared to EDR: 250 μM H2O2; for viability compared to EDR: 50 μM dose
Description: (§1) Methods: The in vitro properties and antioxidant abilities of the synthesized B^5-EDR analogues were assessed in cell-based assays. […] The methodology employed for each of these assays is detailed below.
(iii) Methodology for neuroprotective effect/cell viability analysis in (NSC-34) cells (FIGS. 8A-B): Briefly, NSC-34 cells with about 20 k cells per well in 96 well plates were cultured in a complete medium consisting of high glucose Dulbecco's modified eagle medium (DMEM) (Thermo Fisher Scientific) supplemented with about 10% US-origin fetal bovine serum (Thermo Fisher Scientific), GlutaMAX-1, about 200 mM (100×) (Thermo Fisher Scientific), about 1% 100 mM Sodium pyruvate and about 1% 10,000 U/mL penicillin-streptomycin solution (Thermo Fisher Scientific) for about 20 h to reach confluency of about 70%—about 75%. All the cells were cultured in an incubator with about 5% of CO2 at about 37° C. About 20 kcells/100 μl/well were seeded in 96 well plates for about 20 h in triplicates. […] After about 1 h, the cells were treated with 250 μM of H2O2 for about 2 h. After a total period of about 3 h, about 10 μl of WST-8 reagent was added in each well and the absorbance readings were recorded after about 2.5 h at about 450 nm. All the experiments were repeated at least three times and measurements were run in triplicates.

[2] = system: primary cortical neuronal cells; assay: Neurotoxicity/cell viability analysis in primary cortical neuronal cells (WST-8); assay type: cell-based, mouse; conditions: for cell viability compared to controls: 10 μM and 1 μM, FIG. 6B
Description: as §1
(i) Methodology for neurotoxicity/cell viability analysis in primary cortical neuronal cells (FIGS. 6A-B): Briefly, the cerebral cortex was isolated from fetus of mouse at about 17-about 18-day gestation. After meninges and blood vessels were removed, the tissue was digested with trypsin for about 15 min at about 37° C., then incubated with DNase for about another 15 min at about 37° C. and terminated with DMEM plus about 10% fetal bovine serum. After the supernatant was removed, the tissue was added with about 5-ml neurobasal medium (Life Technologies Inc) and triturated by gently pipetting. Neuronal cells contained in the supernatant were transferred to poly-D-lysine-coated plastic culture plates, adjusted to approximately […], and cultured in neurobasal medium with GS21 supplements (Sigma-Aldrich Canada), 1× GlutaMax (Life Technologies Inc,) and about 1% penicillin-streptomycin at about 37° C. under about 5% CO2. About 100 kcells/100 μl/well were seeded in 96 well plates for 2 Div. […] On 8th Div of neurons, about 10 μl of WST reagent was added to each well and incubated for about 2 h. After about 2 h of incubation, the absorbance of soluble coloured formazan dye was measured […] at about […] using microplate reader (Biotek instruments) with the background control as a blank. The cell viability was determined by comparing the absorbance of compounds treated cells to that of control cells. Data are representative of two independent experiments, with each measurement or dose tested six times.

CYP3A4 enzymes = CYP3A4 enzymes (Homo sapiens, UniProt P08684); conditions: cited from earlier work
[3] = system: neuroblastoma-spinal cord hybrid NSC-34 cells; assay: Neuroprotective effect/cell viability analysis in NSC-34 cells against H2O2 induced oxidative stress; assay type: cell-based; conditions: prophylactic treatment, 250 μM H2O2, FIG. 7A
ALS = conditions: patients in early stages, drug for 6 months or more; cited from earlier work
[4] = target: P-glycoprotein (Pgp) efflux pump (Homo sapiens, UniProt P08183); conditions: cited from earlier work
[5] = system: neuroblastoma-spinal cord hybrid NSC-34 cells; assay: Neurotoxicity/cell viability analysis in NSC-34 cells (WST-8); assay type: cell-based; conditions: 1 to 100 μM
Description: as §1
(ii) Methodology for neurotoxicity/cell viability analysis in (NSC-34) cells (FIGS. 7A-C): Briefly, NSC-34 cells with about 20 k cells per well in 96 well plates were cultured in a complete medium consisting of high glucose Dulbecco's modified eagle medium (DMEM) (Thermo Fisher Scientific) supplemented with about 10% US-origin fetal bovine serum (Thermo Fisher Scientific), GlutaMAX-1, about 200 mM (100×) (Thermo Fisher Scientific), about 1% 100 mM Sodium pyruvate and about 1% 10,000 U/mL penicillin-streptomycin solution (Thermo Fisher Scientific) for about 20 h to reach confluency of about 70%—about 75%. All the cells were cultured in an incubator with about 5% of CO2 at about 37° C. About 20 kcells/100 μl/well were seeded in 96 well plates for about 20 h in triplicates. Cells were treated with different concentration of compounds and incubated for about 20 h. […] After about 2.5 h of incubation, the absorbance of soluble coloured formazan dye was measured […] at about […] using microplate reader (Biotek instruments) with the background control as a blank. The cell viability was determined by comparing the absorbance of compounds treated cells to that of control cells. […]

[6] = cited from earlier work

CYP3A4 enzymes, sequence (P08684 whole entry): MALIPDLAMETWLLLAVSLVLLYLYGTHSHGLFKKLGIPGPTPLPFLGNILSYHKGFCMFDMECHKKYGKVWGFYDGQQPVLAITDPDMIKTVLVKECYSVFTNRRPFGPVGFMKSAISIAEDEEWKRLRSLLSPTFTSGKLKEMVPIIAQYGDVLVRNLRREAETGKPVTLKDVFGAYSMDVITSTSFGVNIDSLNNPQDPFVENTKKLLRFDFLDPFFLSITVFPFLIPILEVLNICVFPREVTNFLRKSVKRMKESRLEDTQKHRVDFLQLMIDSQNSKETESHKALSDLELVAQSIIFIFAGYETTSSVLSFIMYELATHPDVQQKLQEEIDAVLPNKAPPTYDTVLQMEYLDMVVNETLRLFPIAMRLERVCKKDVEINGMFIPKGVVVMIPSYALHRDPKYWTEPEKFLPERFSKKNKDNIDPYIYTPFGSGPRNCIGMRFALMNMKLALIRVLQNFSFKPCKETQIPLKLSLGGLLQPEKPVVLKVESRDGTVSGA
P-glycoprotein (Pgp) efflux pump, sequence (P08183 whole entry): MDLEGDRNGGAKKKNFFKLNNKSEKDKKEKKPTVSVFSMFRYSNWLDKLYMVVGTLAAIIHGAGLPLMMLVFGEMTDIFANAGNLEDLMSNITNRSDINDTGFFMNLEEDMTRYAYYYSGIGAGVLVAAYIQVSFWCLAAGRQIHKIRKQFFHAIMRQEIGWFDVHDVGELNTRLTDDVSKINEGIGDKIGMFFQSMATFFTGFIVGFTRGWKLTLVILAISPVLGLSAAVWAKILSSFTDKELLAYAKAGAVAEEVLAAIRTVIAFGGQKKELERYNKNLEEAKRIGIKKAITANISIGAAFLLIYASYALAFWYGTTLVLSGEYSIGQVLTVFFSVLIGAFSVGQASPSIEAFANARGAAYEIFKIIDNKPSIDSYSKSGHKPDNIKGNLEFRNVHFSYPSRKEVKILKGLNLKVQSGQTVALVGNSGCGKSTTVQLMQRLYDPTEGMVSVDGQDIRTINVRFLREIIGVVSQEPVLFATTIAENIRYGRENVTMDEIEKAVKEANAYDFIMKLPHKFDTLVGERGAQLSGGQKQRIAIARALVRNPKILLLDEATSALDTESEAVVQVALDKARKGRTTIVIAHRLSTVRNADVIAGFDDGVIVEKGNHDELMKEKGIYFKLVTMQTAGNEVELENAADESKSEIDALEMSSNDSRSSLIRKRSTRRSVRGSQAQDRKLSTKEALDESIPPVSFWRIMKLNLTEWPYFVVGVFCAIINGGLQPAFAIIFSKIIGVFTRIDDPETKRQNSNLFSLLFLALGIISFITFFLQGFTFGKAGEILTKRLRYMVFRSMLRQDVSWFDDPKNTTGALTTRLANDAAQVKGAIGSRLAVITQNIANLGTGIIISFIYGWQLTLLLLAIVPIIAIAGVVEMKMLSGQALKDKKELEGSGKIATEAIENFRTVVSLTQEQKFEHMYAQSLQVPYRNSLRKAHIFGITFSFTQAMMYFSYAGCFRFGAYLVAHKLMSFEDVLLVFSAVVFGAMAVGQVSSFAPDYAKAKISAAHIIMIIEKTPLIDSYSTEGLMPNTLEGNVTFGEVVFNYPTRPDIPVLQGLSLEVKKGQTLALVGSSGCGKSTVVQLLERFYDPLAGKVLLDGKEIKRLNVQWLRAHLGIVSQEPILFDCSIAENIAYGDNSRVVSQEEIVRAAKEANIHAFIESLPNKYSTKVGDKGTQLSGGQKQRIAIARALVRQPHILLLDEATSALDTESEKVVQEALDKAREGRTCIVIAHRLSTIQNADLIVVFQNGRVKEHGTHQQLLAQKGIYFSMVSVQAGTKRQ

SMILES | neuroprotection in scavenging neurotoxic effects of H2O2 compared to EDR ([1]; 1 μM) | neuroprotection in scavenging neurotoxic effects of H2O2 compared to EDR ([1]; 25 μM) | viability compared to EDR [1] | cell viability compared to controls [2] | metabolism by CYP3A4 (CYP3A4 enzymes) | protection from loss of cell viability induced by H2O2 [3] | effect on progression of ALS (ALS) | P-glycoprotein efflux pump substrate status [4] | neurotoxicity and cytotoxicity towards NSC-34 motor neuronal cells [5] | aqueous solubility [6] | fraction of EDR existing as an anion ([6]; physiological pH about 7.4) | fraction of EDR existing in neutral form ([6]; physiological pH about 7.4) | H2O2 scavenging effects ([1]; 250 μM H2O2, FIGS. 8A-B) | decrease in cell viability compared to control (DMSO) ([2]; mouse, 6 days, 25 μM)
Cc1cc([B-](F)(F)F)n(-c2ccccc2)n1.[K+] [NS-1-21, Potassium trifluoro(3-methyl-1phenyl-1H-pyrazol-5-yl)borate] | better neuroprotection | better neuroprotection | almost equal viability | around 100% |  |  |  |  |  |  |  |  |  | 
CC1(C)OB(c2cc(C(F)(F)F)nn2-c2ccccc2)OC1(C)C [NS-1-12, 3-triflouromethyl-5-(4,4,5,5-tetramethyl-1,3,2-dioxaborolan-2-yl)-1-phenyl1H-pyrazole] |  | better neuroprotection | almost equal viability |  |  |  |  |  |  |  |  |  |  | 
F[B-](F)(F)c1cc(C(F)(F)F)nn1-c1ccccc1.[K+] [NS-1-19, Potassium trifluoro(3-triflouromethyl-1phenyl-1H-pyrazol-5-yl)borate] | better neuroprotection | better neuroprotection | almost equal viability | around 100% |  |  |  |  |  |  |  |  |  | 
CC1=NN(c2ccccc2)C(=O)C1 [EDR, 3-methyl-1-phenyl-2-pyrazolin-5-one] |  |  |  |  | metabolized pre-systematically | protected NSC-34 cells from loss of cell viability | delayed the progression of ALS | substrate | no neurotoxicity and cytotoxicity | about 1.85 mg/ml | about 71.5% | about 28.5% | significant H2O2 scavenging effects in a dose dependent manner | ~70±10%
